Patent US20240368169A1 (priority 2021, published 2024)

System: MDA-MB-436 cells
Experiment: Growth inhibition assay against BRCA mutant human breast cancer MDA-MB-436 cell line (CCK-8, 7 days)
Type: cell-based

Structure (SMILES)	IC50 [nM]
CNC(=O)c1ccc(N2CCN(Cc3ccc4c5c(c(=O)[nH]c4c3)COC5)CC2)cn1 [Example 1, 7-((4-(6-(methylcarbamoyl)pyridin-3-yl)piperazin-1-yl)methyl)-3,5-dihydrofuro[3,4-c]quinolin-4(1H)-one]	170
CNC(=O)c1ccc(N2CCN(Cc3ccc4c5c(c(=O)[nH]c4c3)CCC5)CC2)c(C)n1 [Example 17, 7-((4-(2-methyl-6-(methylcarbamoyl)pyridin-3-yl)piperazin-1-yl)methyl)-1,2,3,5-tetrahydro-4H-cyclopenta[c]quinolin-4-one]	2.59
CNC(=O)c1ccc(N2CCN(Cc3ccc4c(c3)[nH]c(=O)c3cncn34)CC2)c(C)n1 [Example 26, 7-((4-(2-methyl-6-(methylcarbamoyl)pyridin-3-yl)piperazin-1-yl)methyl)imidazo[1,5-a]quinoxalin-4(5H)-one]	23.9
CNC(=O)c1ccc(N2CCN(Cc3ccc4c(c3)[nH]c(=O)c3ncnn34)CC2)c(C)n1 [Example 29, 7-((4-(2-methyl-6-(methylcarbamoyl)pyridin-3-yl)piperazin-1-yl)methyl)-[1,2,4]triazolo[1,5-a]quinoxalin-4(5H)-one]	28.2
CNC(=O)c1ccc(N2CCN(Cc3ccc4c(c3)[nH]c(=O)n3ccnc43)CC2)c(C)n1 [Example 31, 8-((4-(2-methyl-6-(methylcarbamoyl)pyridin-3-yl)piperazin-1-yl)methyl)imidazo[1,2-c]quinazolin-5(6H)-one]	2.08
CNC(=O)c1ccc(N2CCN(Cc3ccc4c(c3)[nH]c(=O)c3cccn34)CC2)c(F)n1 [Example 34, 7-((4-(2-fluoro-6-(methylcarbamoyl)pyridin-3-yl)piperazin-1-yl)methyl)pyrrolo[1,2-a]quinoxalin-4(5H)-one]	0.75
CNC(=O)c1ccc(N2CCN(Cc3ccc4c(c3)[nH]c(=O)c3cncn34)CC2)c(Cl)n1 [Example 39, 7-((4-(2-chloro-6-(methylcarbamoyl)pyridin-3-yl)piperazin-1-yl)methyl)imidazo[1,5-a]quinoxalin-4(5H)-one]	3.56
CNC(=O)c1ccc(N2CCN(Cc3cc(F)c4c(c3)[nH]c(=O)c3cccn34)CC2)c(F)n1 [Example 41, 7-((4-(2-fluoro-6-(methylcarbamoyl)pyridin-3-yl)piperazin-1-yl)methyl)-9-fluoropyrrolo[1,2-a]quinoxalin-4(5H)-one]	1.41
CNC(=O)c1ccc(N2CCN(Cc3cc(F)c4c(c3)[nH]c(=O)c3cccn34)CC2)c(Cl)n1 [Example 42, 7-((4-(2-chloro-6-(methylcarbamoyl)pyridin-3-yl)piperazin-1-yl)methyl)-9-fluoropyrrolo[1,2-a]quinoxalin-4(5H)-one]	0.93
CNC(=O)c1ccc(N2CCN(Cc3cc(F)c4c(c3)[nH]c(=O)c3ccnn34)CC2)c(C)n1 [Example 43, 7-((4-(2-methyl-6-(methylcarbamoyl)pyridin-3-yl)piperazin-1-yl)methyl)-9-fluoropyrazolo[1,5-a]quinoxalin-4(5H)-one]	1.2
CNC(=O)c1ccc(N2CCN(Cc3cc(F)c4c(c3)[nH]c(=O)c3ccnn34)CC2)c(Cl)n1 [Example 45, 7-((4-(2-chloro-6-(methylcarbamoyl)pyridin-3-yl)piperazin-1-yl)methyl)-9-fluoropyrazolo[1,5-a]quinoxalin-4(5H)-one]	2.24
CNC(=O)c1ccc(N2CCN(Cc3cc(Cl)c4c(c3)[nH]c(=O)c3ccnn34)CC2)c(C)n1 [Example 46, 7-((4-(2-methyl-6-(methylcarbamoyl)pyridin-3-yl)piperazin-1-yl)methyl)-9-chloropyrazolo[1,5-a]quinoxalin-4(5H)-one]	2.27
CNC(=O)c1ccc(N2CCN(Cc3cc(Cl)c4c(c3)[nH]c(=O)c3ccnn34)CC2)c(F)n1 [Example 47, 7-((4-(2-fluoro-6-(methylcarbamoyl)pyridin-3-yl)piperazin-1-yl)methyl)-9-chloropyrazolo[1,5-a]quinoxalin-4(5H)-one]	2.6
CCNC(=O)c1ccc(N2CCN(Cc3ccc4c5c(c(=O)[nH]c4c3)CCC5)CC2)c(C)n1 [Example 49, 7-((4-(2-methyl-6-(ethylcarbamoyl)pyridin-3-yl)piperazin-1-yl)methyl)-1,2,3,5-tetrahydro-4H-cyclopenta[c]quinolin-4-one]	2.18
CCNC(=O)c1ccc(N2CCN(Cc3ccc4c5c(c(=O)[nH]c4c3)CCC5)CC2)c(Cl)n1 [Example 50, 7-((4-(2-chloro-6-(ethylcarbamoyl)pyridin-3-yl)piperazin-1-yl)methyl)-1,2,3,5-tetrahydro-4H-cyclopenta[c]quinolin-4-one]	5.7
CNC(=O)c1ccc(N2CCN(Cc3ccc4c(c3)[nH]c(=O)c3cc(C)cn34)CC2)c(C)n1 [Example 55, 7-((4-(2-methyl-6-(methylcarbamoyl)pyridin-3-yl)piperazin-1-yl)methyl)-2-methylpyrrolo[1,2-a]quinoxalin-4(5H)-one]	1.44
CNC(=O)c1ccc(N2CCN(Cc3ccc4c(c3)[nH]c(=O)c3c(C)cnn34)CC2)c(C)n1 [Example 58, 7-((4-(2-methyl-6-(methylcarbamoyl)pyridin-3-yl)piperazin-1-yl)methyl)-3-methylpyrazolo[1,5-a]quinoxalin-4(5H)-one]	1.87
O=C(NC1CC1)c1ccc(N2CCN(Cc3ccc4c(c3)[nH]c(=O)c3cccn34)CC2)c(F)n1 [Example 60, 7-((4-(2-fluoro-6-(cyclopropylcarbamoyl)pyridin-3-yl)piperazin-1-yl)methyl)pyrrolo[1,2-a]quinoxalin-4(5H)-one]	0.63
O=C(NC1CC1)c1ccc(N2CCN(Cc3ccc4c(c3)[nH]c(=O)c3cccn34)CC2)c(Cl)n1 [Example 61, 7-((4-(2-chloro-6-(cyclopropylcarbamoyl)pyridin-3-yl)piperazin-1-yl)methyl)pyrrolo[1,2-a]quinoxalin-4(5H)-one]	0.98
Cc1nc(C(=O)NC2CC2)ccc1N1CCN(Cc2ccc3c4c(c(=O)[nH]c3c2)COC4)CC1 [Example 63, 7-((4-(2-methyl-6-(cyclopropylcarbamoyl)pyridin-3-yl)piperazin-1-yl)methyl)-3,5-dihydrofuro[3,4-c]quinolin-4(1H)-one]	3.32
CNC(=O)c1ccc(N2CCN(Cc3ccc4c(c3)[nH]c(=O)c3cccn34)CC2)cn1 [Example 65, 7-((4-(6-(methylcarbamoyl)pyridin-3-yl)piperazin-1-yl)methyl)pyrrolo[1,2-a]quinoxalin-4(5H)-one]	1.12
CNC(=O)c1ccc(N2CCN(Cc3cc(F)c4c(c3)[nH]c(=O)c3cc(C)nn34)CC2)c(C)n1 [Example 75, 7-((4-(2-methyl-6-(methylcarbamoyl)pyridin-3-yl)piperazin-1-yl)methyl)-9-fluoro-2-methylpyrazolo[1,5-a]quinoxalin-4(5H)-one]	3.31
CNC(=O)c1ccc(N2CCN(Cc3cc(F)c4c5c(c(=O)[nH]c4c3)CCC5)CC2)c(C)n1 [Example 79, 7-((4-(2-methyl-6-(methylcarbamoyl)pyridin-3-yl)piperazin-1-yl)methyl)-9-fluoro-1,2,3,5-tetrahydro-4H-cyclopenta[c]quinolin-4-one]	1.04
Cc1nc(C(=O)NC2CC2)ccc1N1CCN(Cc2cc(F)c3c4c(c(=O)[nH]c3c2)CCC4)CC1 [Example 81, 7-((4-(2-methyl-6-(cyclopropylcarbamoyl)pyridin-3-yl)piperazin-1-yl)methyl)-9-fluoro-1,2,3,5-tetrahydro-4H-cyclopenta[c]quinolin-4-one]	4.67
